{"source": "patent US6509377B1", "about": "“Use of a 2-hydroxy-4-trifluoromethylbenzoic acid derivatives as inhibitors of the activation of the nuclear transcription factor NF-κB” (J. Uriach & Cia, S.A., priority 1999, dated 2003)", "format_in_all_cases": "cell-based", "key": {"iNOS": {"system": "iNOS", "assay": "iNOS expression measured as nitrite production induced by immune complexes in rat peritoneal macrophages", "details": "Peritoneal macrophage, 100 μg/ml IgG/ovalbumin, nitrite after 24 hours, mean ± SEM, read-out: IC50, production of nitrite (NO) induced by immune complexes", "protocol": "Rat peritoneal cells were obtained and resuspended in DMEM culture medium in the absence of serum and supplemented with antibiotics. Macrophages were isolated by their ability to adhere to culture plates following incubation for 2 hours at 37° C. Non-adherent cells were removed and it was then checked that more than 95% of the adherent cells were macrophages, as assessed by their ability to engulf zymosan particles and nonspecific esterase staining. Culture plates were kept at 37° C. under a 5% CO2 atmosphere, and the peritoneal macrophages adhered to the plates were incubated with 100 μg/ml IgG/ovalbumin immune complexes in the presence or absence (Control) of triflusal or HTB (0.1-20 mM, both). Drugs were added 10 minutes before the addition of IgG/ovalbumin and the production of NO was determined as the nitrite present after 24 hours.\niNOS expression was indirectly measured as the production of NO. NO released from macrophage cultures was determined indirectly by the accumulation of nitrites. […] 50 μl naphthylenediamine (1 mM final concentration) were added and after 15 minutes of incubation the absorbance of the sample was measured at 548 nm and was compared with a NaNO2 standard. The production of NO was expressed as nmol NO2^−/mg protein."}, "COX-2": {"system": "COX-2", "assay": "PGE2 production induced by LPS in human PBMC (ELISA)", "details": "LPS 10 μg/ml, 19 hours, 0.1-5 mM", "protocol": "Mononuclear cells (PBMC) were obtained from blood of healthy donors from the Hospital de Sant Pau, (Barcelona) who had not taken any antiinflammatory drug during a period of not less than 2 weeks before blood extraction. Starting from a volume of about 80 ml of heparinized human blood (10 U/ml), this was diluted (1:1) with PBS (pH 7.4; Dulbecco) without calcium, magnesium nor sodium bicarbonate. 15 ml of Ficoll solution (d=1.077 at 20° C.; Biochrom KG) were placed in 50-ml Falcon tubes. To this solution a volume of about 25 ml per tube of the blood previously diluted with PBS was carefully added and the tubes were then centrifuged at 1,200 g for 20 minutes. Mononudear cells concentrate on a whitish interphase between the plasma and the Ficoll solution. This interphase was collected with a Pasteur pipette and was diluted 1:1 with PBS. It was then centrifuged at 300 g, 10 min. The resulting pellet was resuspended in 50 ml PBS and was again centrifuged at 200 g for 10 min in order to remove platelet contamination. Finally, the resulting pellet was resuspended in 20 ml RPMI-1640 culture medium (GibcoBRL) supplemented with 10% fetal calf serum. […]\nFinally, the supernatants from each experiment that had been stored at −70° C. were defrozen and the amount of PGE2 in solution was determined using specific ELISA kits (Amershan-Biotrak RPN22)."}, "TNF-α": {"system": "TNF-α", "assay": "TNF-α production induced by LPS in human PBMC (enzymatic immunoassay)", "details": "LPS 10 μg/ml, 19 hours", "protocol": "Mononuclear cells (PBMC) were obtained from blood of healthy donors from the Hospital de Sant Pau (Barcelona) following the procedure described in example 3. Cells were diluted at a concentration of 2 million/ml in RPMI medium supplemented with 10% fetal calf serum and were incubated (37° C., 5% CO2) with triflusal, HTB or vehicle (DMSO) in the presence of 10 μg/ml E.coli lipopolysaccharide (LPS, 026:B6 serotype; Sigma), for 19 hours. The cell suspension was then centrifuged at 2,000 g for 10 minutes at 4° C., and the resulting supernatant was stored at −70° C. for later analysis. The cytokine content was determined by enzymatic immunoassay, after 1/100 dilution of the samples."}}}
{"smiles": "O=C(O)c1ccc(C(F)(F)F)cc1O", "note": "[HTB, 2-hydroxy-4-trifluoromethylbenzoic acid]", "values": [{"measurement": "IC50", "setting": "iNOS", "value": "1.84 ± 0.34", "unit": "mM"}, {"measurement": "inhibition of PGE2 production", "setting": "COX-2", "value": "concentration-dependently inhibit"}, {"measurement": "inhibition of LPS-induced TNF-α production", "setting": "TNF-α; 0.3 mM", "value": "almost completely inhibit"}, {"measurement": "inhibition of LPS-induced TNF-α production", "setting": "TNF-α; 1 mM", "value": "almost completely inhibit"}]}
{"smiles": "CC(=O)Oc1cc(C(F)(F)F)ccc1C(=O)O", "note": "[triflusal, 2-Acetyloxy-4-trifluoromethylbenzoic acid, reference compound]", "values": [{"measurement": "IC50", "setting": "iNOS", "value": "1.13 ± 0.12", "unit": "mM"}, {"measurement": "inhibition of PGE2 production", "setting": "COX-2", "value": "concentration-dependently inhibit"}, {"measurement": "inhibition of LPS-induced TNF-α production", "setting": "TNF-α; 0.3 mM", "value": "almost completely inhibit"}, {"measurement": "inhibition of LPS-induced TNF-α production", "setting": "TNF-α; 1 mM", "value": "almost completely inhibit"}]}
